From patent publication US10961216B2, “Small molecule modulators of the androgen receptor” (Massachusetts Institute of Technology, priority 2017, dated 2021)
Converted amounts (≈) assume the structure as drawn. Read-outs that look alike come from different tables or passages of the source.

Experiments:
LNCaP = LNCaP reporter assay; type: cell-based; conditions: Homo sapiens
Description: (§1) To meet this need, compounds binding to AR-v7 were identified using the combination of a small molecule microarray (SMM) screen of 50,000 compounds, qPCR, and reporter assays. The SMM was screened against a functional AR-truncate composed of the NTD and DBD (exons 1-3) and therefore targeting these domains specifically. Candidate compounds were further evaluated in a series of assays designed to show specificity to AR-sensitive cell lines.
Compounds of the invention may also be identified via a reporter assay. Reporter assays are commonly used to study signaling pathways, gene expression and regulation at the transcriptional level, and the structure of regulatory elements. In general, a reporter assay comprises a regulatory element of interest (e.g. promoter DNA) along with a reporter gene (e.g., gene encoding a reporter protein) cloned into a vector and transfected into cells. In certain embodiments, a reporter is a protein. In certain embodiments, a reporter is a protein with an easily measureable activity. “Easily measureable activity” (or simply “activity”) can refer to any activity that can be measured through methods known in the art, such as fluorescence, enzymatic activities that generate fluorescent or luminescent products, or indirectly with antibodies. […]

AR-v7 = biological target: T1, AR-v7 (Homo sapiens, UniProt P10275); assay: small molecule microarray (SMM) screen, binding to AR-v7; conditions: SMM screened against AR-truncate of NTD and DBD (exons 1-3), with qPCR and reporter assays
T1 construct: screened against a functional AR-truncate composed of the NTD and DBD (exons 1-3)
T1 sequence (P10275 1-628 limits assumed): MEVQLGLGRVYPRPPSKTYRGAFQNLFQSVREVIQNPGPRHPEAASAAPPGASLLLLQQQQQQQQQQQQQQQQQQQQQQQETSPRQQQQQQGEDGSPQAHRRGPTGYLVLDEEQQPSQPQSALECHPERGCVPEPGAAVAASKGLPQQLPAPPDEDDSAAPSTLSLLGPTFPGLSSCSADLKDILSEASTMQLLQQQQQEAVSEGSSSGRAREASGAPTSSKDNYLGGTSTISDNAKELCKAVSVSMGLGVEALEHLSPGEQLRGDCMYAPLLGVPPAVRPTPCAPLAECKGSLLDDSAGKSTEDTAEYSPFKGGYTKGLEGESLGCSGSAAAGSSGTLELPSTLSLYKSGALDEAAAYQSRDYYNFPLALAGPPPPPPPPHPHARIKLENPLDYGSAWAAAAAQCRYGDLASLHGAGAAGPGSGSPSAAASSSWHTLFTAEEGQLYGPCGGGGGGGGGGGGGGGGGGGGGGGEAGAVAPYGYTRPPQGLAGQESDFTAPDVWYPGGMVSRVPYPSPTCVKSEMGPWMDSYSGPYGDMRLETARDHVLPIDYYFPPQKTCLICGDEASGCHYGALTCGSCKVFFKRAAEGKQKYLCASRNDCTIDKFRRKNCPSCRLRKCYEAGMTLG
Description: as §1

[1] = test system: 22Rv1 cell line lentiviral transduced with CMV-firefly luciferase; assay: reporter gene assay to monitor transcriptional effects; type: cell-based; conditions: Homo sapiens; 22Rv1, CMV-firefly luciferase
Description: (§2) All compounds were evaluated in a reporter gene assay (22Rv1 cell line lentiviral transduced with CMV-firefly luciferase) to monitor transcriptional effects and two cell viability assays (Cell-titer blue; PC3 cell line, an AR insensitive cell line, and LNCaP cell line, an AR sensitive cell line). The compounds were also monitored for aggregation.

[2] = test system: PC3 cell line, an AR insensitive cell line; assay: cell viability assay (Cell-titer blue), PC3; type: cell-based; conditions: Homo sapiens, PC-3, read-out: PC3 CTB IC50
Description: as §2

[3] = test system: LNCaP cell line, an AR sensitive cell line; assay: cell viability assay (Cell-titer blue), LNCaP; type: cell-based; conditions: Homo sapiens, read-out: LNCaP CTB IC50
Description: as §2

Solubility = type: physicochemical

SMILES | IC50 (LNCaP) | binding to AR-v7 (AR-v7) | IC50 [1] | IC50 [2] | IC50 [3] | Solubility (Solubility) | Solubility (Solubility; read-out: Solubility)
Cc1c(C(=O)N(C)Cc2cccc3ncccc23)sc2ncnc(NCC3C[C@@H]4C=C[C@H]3C4)c12 (stereo partly drawn) [Compound (2), 4-((((1R,4R)-bicyclo[2.2.1]hept-5-en-2-yl)methyl)amino)-N,5-dimethyl-N-(quinolin-5-ylmethyl)thieno[2,3-d]pyrimidine-6-carboxamide] | 6.86 µM | found to bind to AR-v7 |  |  |  |  | 
O=C(NCCC1CC2C=CC1C2)c1cccc(OC2CCN(C(=O)C3CCCC3)CC2)c1 (centres unmarked) [Compound I-3] |  |  | ~24.6 µM | 3560 µM | 16.7 µM | 25 mM (≈ 10.9 mg/mL) | 
O=C(NCCC1CC2C=CC1C2)c1cccc(OC2CCN(C(=O)C3CCCCC3)CC2)c1 (centres unmarked) [Compound I-4] |  |  | ~25.2 µM | 33400 µM | 24.3 µM | 25 mM (≈ 11.3 mg/mL) | 
O=C(NCCC1CC2C=CC1C2)c1cccc(OC2CCN(C(=O)C3CCC3)CC2)c1 (centres unmarked) [Compound I-5] |  |  | ~25.2 µM |  | 24.6 µM | 25 mM (≈ 10.6 mg/mL) | 
O=C(NCCC1CC2C=CC1C2)c1cccc(OC2CCN(C(=O)c3ccccc3)CC2)c1 (centres unmarked) [Compound I-6] |  |  | ~24.9 µM |  | 8.2 µM | 25 mM (≈ 11.1 mg/mL) | 
O=C(NCCC1CC2C=CC1C2)c1cccc(OC2CCN(C(=O)Cc3ccccc3)CC2)c1 (centres unmarked) [Compound I-7] |  |  | ~25.9 µM |  | 52.4 µM | 25 mM (≈ 11.5 mg/mL) | 
O=C(NCCC1CC2C=CC1C2)c1cccc(OC2CCN(C(=O)C(F)(F)F)CC2)c1 (centres unmarked) [Compound I-8] |  |  | 21.9 µM |  | 70.5 µM | 25 mM (≈ 10.9 mg/mL) | 
O=C(NCCC1CC2C=CC1C2)c1cccc(OC2CCN(C(=O)c3cccnc3)CC2)c1 (centres unmarked) [Compound I-9] |  |  |  |  | 355 µM | 25 mM (≈ 11.1 mg/mL) | 
O=C(NCCC1CC2C=CC1C2)c1ccc(OC2CCN(C(=O)C3CC3)CC2)cc1 (centres unmarked) [Compound I-10] |  |  |  |  |  | 25 mM (≈ 10.2 mg/mL) | 
O=C(NCC1CC2C=CC1C2)c1cccc(OC2CCN(C(=O)C3CC3)CC2)c1 (centres unmarked) [Compound I-11] |  |  | 28.3 µM |  |  | 25 mM (≈ 9.86 mg/mL) | 
O=C(NCC12CC3CC(CC(C3)C1)C2)c1cccc(OC2CCN(C(=O)C3CC3)CC2)c1 [Compound I-13] |  |  |  |  | 172 µM | 25 mM (≈ 10.9 mg/mL) | 
CC(NC(=O)c1cccc(OC2CCN(C(=O)C3CC3)CC2)c1)C12CC3CC(CC(C3)C1)C2 (centres unmarked) [Compound I-14] |  |  |  |  |  | 25 mM (≈ 11.3 mg/mL) | 
O=C(NCC1CC2C=CC1C2)c1cccc(OC2CCN(C(=O)C(F)(F)F)CC2)c1 (centres unmarked) [Compound I-17] |  |  | 5.21 µM |  | 18.4 µM | 25 mM (≈ 10.6 mg/mL) | 
O=C(NCC1CC2C=CC1C2)c1cccc(OC2CCN(C(=O)C3CCC3)CC2)c1 (centres unmarked) [Compound I-18] |  |  | ~24.4 µM |  | 41.2 µM | 25 mM (≈ 10.2 mg/mL) | 
CC(=O)Oc1cccc(C(=O)NCC2CC3C=CC2CC3)c1 (centres unmarked) [Compound I-19] |  |  |  |  |  | 25 mM (≈ 7.48 mg/mL) | 
O=C(NCC1CC2C=CC1CC2)c1cccc(O)c1 (centres unmarked) [Compound I-20] |  |  |  |  |  | 25 mM (≈ 6.43 mg/mL) | 
CCCC(CCC)C(=O)N1CCC(Oc2cccc(C(=O)NCCC3CC4C=CC3C4)c2)CC1 (centres unmarked) [Compound I-21] |  |  |  |  | 342 µM | 25 mM (≈ 11.7 mg/mL) | 
O=C(NCCC1CC2C=CC1C2)c1cccc(OC2CCN(C(=O)CCc3ccc(Cl)cc3)CC2)c1 (centres unmarked) [Compound I-22] |  |  |  |  | 3580 µM |  | 6.25 mM (≈ 3.17 mg/mL)
O=C(NCC1CC2C=CC1CC2)c1cccc(OC2CCN(C(=O)C3CC3)CC2)c1 (centres unmarked) [Compound I-23] |  |  | ~25.5 µM |  | 1020 µM | 25 mM (≈ 10.2 mg/mL) | 
CN(Cc1cccc2ncccc12)C(=O)c1cccc(OC2CCN(C(=O)C3CC3)CC2)c1 [Compound I-24] |  |  | 20.4 µM |  | 1650 µM |  | 12.5 mM (≈ 5.54 mg/mL)

SMILES | IC50 (LNCaP) | binding to AR-v7 (AR-v7) | IC50 [1] | IC50 [2] | IC50 [3] | Solubility (Solubility) | Solubility (Solubility; read-out: Solubility)
O=C(NCC1CC2C=CC1CC2)c1ccc(OC2CCN(C(=O)C3CC3)CC2)cc1 (centres unmarked) [Compound I-25] |  |  |  |  | 388 µM | 25 mM (≈ 10.2 mg/mL) | 
O=C(NCCCc1ccccc1)c1cccc(OC2CCN(C(=O)C3CC3)CC2)c1 [Compound I-26] |  |  |  | 341 µM | 222 µM | 25 mM (≈ 10.2 mg/mL) | 
O=C(Nc1ccc2ccccc2c1)c1cccc(OC2CCN(C(=O)C3CC3)CC2)c1 [Compound I-27] |  |  |  | 49.9 µM | 28.5 µM |  | 12.5 mM (≈ 5.18 mg/mL)
O=C(Nc1ccc(Cl)cc1)c1cccc(OC2CCN(C(=O)C3CC3)CC2)c1 [Compound I-28] |  |  |  | 176 µM | 698 µM | 25 mM (≈ 9.97 mg/mL) | 
CC(C)c1ccc(NC(=O)c2cccc(OC3CCN(C(=O)C4CC4)CC3)c2)cc1 [Compound I-29] |  |  |  |  | 25.1 µM | 25 mM (≈ 10.2 mg/mL) | 
O=C(Nc1ccccc1)c1cccc(OC2CCN(C(=O)C3CC3)CC2)c1 [Compound I-30] |  |  |  |  | 136 µM | 25 mM (≈ 9.11 mg/mL) | 
O=C(NCc1ccccc1)c1cccc(OC2CCN(C(=O)C3CC3)CC2)c1 [Compound I-31] |  |  |  | 166 µM | 62.6 µM | 25 mM (≈ 9.46 mg/mL) | 
O=C(NCCC1CCCCC1)c1cccc(OC2CCN(C(=O)C3CC3)CC2)c1 [Compound I-32] |  |  |  | 101 µM | 79.2 µM | 25 mM (≈ 9.96 mg/mL) | 
CCCCC(=O)N1CCC(Oc2cccc(C(=O)NCCC3CC4C=CC3C4)c2)CC1 (centres unmarked) [Compound I-34] |  |  | ~27.9 µM | 55.8 µM | 28.8 µM |  | 12.5 mM (≈ 5.31 mg/mL)
C=CCCC(=O)N1CCC(Oc2cccc(C(=O)NCCC3CC4C=CC3C4)c2)CC1 (centres unmarked) [Compound I-35] |  |  | 31.5 µM |  | 26.5 µM | 25 mM (≈ 10.6 mg/mL) | 
CC(=O)CCC(=O)N1CCC(Oc2cccc(C(=O)NCCC3CC4C=CC3C4)c2)CC1 (centres unmarked) [Compound I-36] |  |  |  | 80.5 µM |  | 25 mM (≈ 11 mg/mL) | 
O=C(NCC1C2C=CC(C2)C1CO)c1ccc(OC2CCN(C(=O)C3CC3)CC2)cc1 (centres unmarked) [Compound I-37] |  |  |  | 1150 µM |  | 25 mM (≈ 10.6 mg/mL) | 
CCOC(=O)C1C2C=CC(C2)C1CNC(=O)c1ccc(OC2CCN(C(=O)C3CC3)CC2)cc1 (centres unmarked) [Compound I-38] |  |  |  | 1890 µM |  |  | 12.5 mM (≈ 5.83 mg/mL)
O=C(NCC1CC2C=CC1CC2)c1cccc(OC2CCN(C(=O)C(F)(F)F)CC2)c1 (centres unmarked) [Compound I-39] |  |  |  | 93.9 µM | 397 µM | 25 mM (≈ 10.9 mg/mL) | 
O=C(NCC1CC2C=CC1CC2)c1cccc(OC2CCN(C(=O)c3cccnc3)CC2)c1 (centres unmarked) [Compound I-40] |  |  |  | 90.3 µM | 120 µM | 25 mM (≈ 11.1 mg/mL) | 
Cc1c(C(=O)N(C)Cc2cccc3ncccc23)sc2ncnc(NCC3C4C=CC(C4)C3CO)c12 (centres unmarked) [II-3] |  |  |  | 3210 µM | 493 µM | 25 mM (≈ 12.5 mg/mL) | 
Cc1c(C(=O)N(C)Cc2cccc3ncccc23)sc2ncnc(NCCC3CCCCC3)c12 [II-4] |  |  | 9.63 µM |  | 10.7 µM | 25 mM (≈ 11.8 mg/mL) | 
Cc1c(C(=O)N(C)Cc2cccc3ncccc23)sc2ncnc(NCC3CC4C=CC3CC4)c12 (centres unmarked) [II-5] |  |  | 2.36 µM | 782 µM | 8.09 µM | 25 mM (≈ 12.1 mg/mL) | 
Cc1c(C(=O)N(C)Cc2cccc3ncccc23)sc2ncnc(NCCC3CC4C=CC3C4)c12 (centres unmarked) [II-6] |  |  | 8.29 µM | 1680 µM | 14.1 µM | 25 mM (≈ 12.1 mg/mL) | 
Cc1c(C(=O)Nc2ccc3ccccc3c2)sc2ncnc(NCC3CC4C=CC3C4)c12 (centres unmarked) [II-7] |  |  |  |  | 68.2 µM | 25 mM (≈ 11 mg/mL) | 
